The values that follow come from patent US20240408215A1, “USE OF DIAZIRINE LINKER FOR DRUG CONJUGATES” (HELMHOLTZ ZENTRUM MUNCHEN - DEUTSCHES FORSCHUNGSZENTRUM FUR …, priority 2021, published 2024).

The data set can be described thus: Pulsed UV light release of 7-hydroxycoumarin in homogenous media, with dark intervals. Type of data set: physicochemical. The following applies: FIG. 7.

For the compound `[N-]=[N+]=NCCCCCC(=O)OCC1(COc2ccc3ccc(=O)oc3c2)N=N1` [(3-(((2-oxo-2H-chromen-7-yl)oxy)methyl)-3H-diazirin-3-yl)methyl-6-azidohexanoate], the “release of 7-hydroxycoumarin in the dark after the light pulse” value (1-2 minutes in the dark after each pulse) is listed as “no additional leaking of payload occurs after ending the pulse”. Further, the “release of 7-hydroxycoumarin upon UV light irradiation” value (water/EtOH/DMSO (1.0:1.0:0.1), UV light pulses, not attached to agarose) is “efficient release”.
